Among the test systems are LOX IMVI melanoma; SF-268 CNS; SK-MEL-2 melanoma; NCI-H522 lung; HT29 colon; NCI-H460 lung; OVCAR-8 ovarian; TK-10 renal.
Assay in all cases: inhibition of tumour cell growth, NCI panel, 48 h

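Cells were grown in 96-well plates and exposed to each compound for 48 hours at five concentrations; endpoints were interpolated linearly between bracketing concentrations, or set to the highest concentration if not reached. The concentration for 50% growth inhibition is given as GI50. TGI: concentration producing complete growth inhibition.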

Consider `Cc1ccc(C2=NN(c3ccc(S(N)(=O)=O)cc3)C(c3cn(-c4ccccc4)nc3-c3ccccc3)C2)cc1` (stereo unspecified), for which the GI50 in the assay with LOX IMVI melanoma is 24.9 µM; in the assay with SF-268 CNS it was 25.7 µM; with SK-MEL-2 melanoma, 43.7 µM; with NCI-H522 lung it was 25.1 µM; with HT29 colon, 4.8 µM; in the assay on NCI-H460 lung it was 4.22 µM. Also, the results for the GI50 in the assay on OVCAR-8 ovarian and in the assay with TK-10 renal were 7.53 µM and 71.2 µM, respectively. In addition, the TGI in the assay on LOX IMVI melanoma, in the assay on SF-268 CNS, in the assay on SK-MEL-2 melanoma, in the assay with NCI-H522 lung, with HT29 colon and with NCI-H460 lung was greater than 100 µM throughout. Moreover, the TGI in the assay on OVCAR-8 ovarian and in the assay with TK-10 renal was greater than 100 µM throughout.
`O=S(=O)(CCCCl)SCCCCl`: the TGI is 40.6 µM in the assay on LOX IMVI melanoma; 65 µM in the assay on SF-268 CNS; greater than 100 µM in the assay on SK-MEL-2 melanoma; 32.6 µM in the assay on NCI-H522 lung; 62.5 µM with HT29 colon; greater than 100 µM with NCI-H460 lung. For the same molecule, the TGI is 18 µM in the assay with OVCAR-8 ovarian and greater than 100 µM in the assay with TK-10 renal.
For the molecule `Nc1nc(-c2cccs2)cs1`, the TGI in the assay on LOX IMVI melanoma, in the assay on SF-268 CNS, in the assay with SK-MEL-2 melanoma, in the assay with NCI-H522 lung, with HT29 colon and in the assay on NCI-H460 lung was greater than 100 µM in each case. For the same molecule, the TGI in the assay on OVCAR-8 ovarian and with TK-10 renal was greater than 100 µM each time.
Turning to `COc1ccc(C(c2cc3c(cc2O)OCO3)N2CCOCC2)cc1OC` (stereo unspecified), the TGI in the assay with LOX IMVI melanoma worked out at 16.5 µM; in the assay on SF-268 CNS it was 25.5 µM; with SK-MEL-2 melanoma, 32.5 µM; with NCI-H522 lung, 15.1 µM; in the assay on HT29 colon, 26 µM; in the assay on NCI-H460 lung it was 71.9 µM. Moreover, the TGI in the assay on OVCAR-8 ovarian was 27.2 µM; in the assay with TK-10 renal, 26.1 µM.
As to `C=CCSSc1ncnc2c1ncn2C1OC(CO)C(O)C1O` (stereo unspecified), the GI50 with LOX IMVI melanoma was 0.37 µM; with SF-268 CNS, 5.05 µM; in the assay with SK-MEL-2 melanoma, 6.25 µM; in the assay on NCI-H522 lung, 1.34 µM; with HT29 colon it was 2.7 µM; in the assay on NCI-H460 lung it was 4.49 µM. Moreover, the GI50 in the assay with OVCAR-8 ovarian is 2.87 µM; in the assay on TK-10 renal, 0.598 µM. The TGI in the assay with LOX IMVI melanoma is greater than 78.6 µM; with SF-268 CNS, greater than 58.1 µM; in the assay on SK-MEL-2 melanoma it was greater than 41.9 µM; in the assay on NCI-H522 lung, 10.7 µM; with HT29 colon, greater than 93.6 µM; in the assay on NCI-H460 lung, greater than 100 µM. Further, the TGI is greater than 42.9 µM in the assay with OVCAR-8 ovarian and greater than 42.3 µM with TK-10 renal.
`O=C(NCCCCCCNC(=O)OCc1ccc2c(Cl)cc(Cl)c(O)c2n1)OCc1ccc2c(Cl)cc(Cl)c(O)c2n1`: the GI50 was 0.325 µM with LOX IMVI melanoma; 1.33 µM with SF-268 CNS; 1.45 µM in the assay on SK-MEL-2 melanoma; 0.46 µM in the assay with NCI-H522 lung; 0.565 µM in the assay with HT29 colon; 1.23 µM in the assay on NCI-H460 lung. Besides, the GI50 is 0.677 µM with OVCAR-8 ovarian and 1.18 µM in the assay on TK-10 renal. Moreover, the TGI came to 1.1 µM with LOX IMVI melanoma; 2.78 µM in the assay on SF-268 CNS; 2.99 µM with SK-MEL-2 melanoma; 2.1 µM with NCI-H522 lung; 2.23 µM with HT29 colon; 3.12 µM in the assay with NCI-H460 lung. Further, the TGI was 2.62 µM with OVCAR-8 ovarian and 2.45 µM with TK-10 renal.
Turning to `COc1ccc2nc(-c3cc4c([nH]c5ccccc54)c(-c4ccc(F)c(F)c4)n3)[nH]c2c1`, the GI50 in the assay on LOX IMVI melanoma was 2.86 µM; in the assay on SF-268 CNS, 5.8 µM; in the assay on SK-MEL-2 melanoma it was 12.1 µM; in the assay on NCI-H522 lung, 10 µM; in the assay with HT29 colon, 3.74 µM; in the assay with NCI-H460 lung, 2.97 µM. Further, the GI50 is 3.08 µM with OVCAR-8 ovarian and 4.29 µM with TK-10 renal. The TGI in the assay with LOX IMVI melanoma worked out at 10.8 µM; with SF-268 CNS it was 69.6 µM; in the assay on SK-MEL-2 melanoma it was 34.9 µM; in the assay with NCI-H522 lung, 33.8 µM; in the assay on HT29 colon, 13 µM; with NCI-H460 lung it was 12.5 µM. For the same molecule, the TGI in the assay on OVCAR-8 ovarian is 18.1 µM; with TK-10 renal it was 17.3 µM.
Consider `Cc1nn(C)c2cc(N(C)c3ccnc(Nc4cccc(S(N)(=O)=O)c4)n3)ccc12`, for which the GI50 is 7.14 µM with LOX IMVI melanoma; 6.39 µM with SF-268 CNS; 9.32 µM with SK-MEL-2 melanoma; 3.46 µM in the assay on NCI-H522 lung; 6.1 µM in the assay on HT29 colon; 7.87 µM in the assay on NCI-H460 lung. The results for the GI50 in the assay on OVCAR-8 ovarian and in the assay with TK-10 renal were 7.15 µM and 5.93 µM, respectively. The TGI is greater than 25 µM in the assay with LOX IMVI melanoma; greater than 25 µM with SF-268 CNS; greater than 25 µM in the assay on SK-MEL-2 melanoma; 19.2 µM in the assay with NCI-H522 lung; greater than 25 µM in the assay on HT29 colon; greater than 25 µM with NCI-H460 lung. Further, the values for the TGI with OVCAR-8 ovarian and in the assay on TK-10 renal were greater than 25 µM and 24.4 µM, respectively.
`CCOCCOC[C@H]1CCCN(c2ccnc3sc(C(N)=O)c(N)c23)C1`: the GI50 in the assay with LOX IMVI melanoma is 29.3 µM; in the assay with SF-268 CNS, 56.4 µM; in the assay on SK-MEL-2 melanoma it was 11.1 µM; in the assay with NCI-H522 lung it was 10.3 µM; with HT29 colon, greater than 100 µM; with NCI-H460 lung, greater than 100 µM. In addition, the GI50 with OVCAR-8 ovarian was 25.1 µM; in the assay with TK-10 renal, greater than 100 µM. Also, the TGI in the assay with LOX IMVI melanoma, in the assay with SF-268 CNS, in the assay on SK-MEL-2 melanoma, in the assay on NCI-H522 lung, with HT29 colon and in the assay on NCI-H460 lung was greater than 100 µM each time. In addition, the TGI with OVCAR-8 ovarian and in the assay on TK-10 renal was greater than 100 µM throughout.
`Cc1nc2sc(C(=O)Nc3cccc(Br)c3)c(N)c2cc1C(O)c1ccccc1` (stereo unspecified): the GI50 was 0.731 µM with LOX IMVI melanoma; 1.81 µM in the assay with SF-268 CNS; 1.77 µM with SK-MEL-2 melanoma; 0.726 µM in the assay with NCI-H522 lung; 0.393 µM in the assay on HT29 colon; 0.391 µM in the assay with NCI-H460 lung. The GI50 in the assay on OVCAR-8 ovarian is 1.42 µM; in the assay on TK-10 renal, 2.22 µM. Moreover, the TGI with LOX IMVI melanoma is 22.9 µM; with SF-268 CNS, 20.2 µM; with SK-MEL-2 melanoma, 26.4 µM; with NCI-H522 lung it was greater than 28.4 µM; with HT29 colon, greater than 82.5 µM; with NCI-H460 lung, 4.74 µM. The TGI in the assay with OVCAR-8 ovarian is 55.1 µM; with TK-10 renal, 26.7 µM.
